Source: US8168832B2, “2,4,6-trialkylphenyl substituted cyclopentane-1,3-dione” (Bayer Cropscience AG, priority 2006, dated 2012)

Test system: crop plants (cereal)
Experiment: Container trials with cereal in the greenhouse, mefenpyr 1 day prior to herbicide application (Example B, use of safeners)
Format: in vivo
Settings: without safener
Procedure: Seeds of monocotyledonous and dicotyledonous weed and crop plants are placed into sandy loam in wood fiber pots or in plastic pots, covered with soil and cultivated in a greenhouse, during the vegetation period also outdoors outside of the greenhouse, under good growth conditions. 2 to 3 weeks after sowing, the test plants are treated at the one- to three-leaf stage. The test compounds, formulated as wettable powders (WP) or liquid (EC), are, in various dosages at a water application rate of 300 l/ha (converted), with wetting agent (0.2 to 0.3%) added, sprayed onto the plants and the surface of the soil. […]
If it is additionally to be tested as to whether safeners can improve the plant compatibility of test substances in the case of crop plants, the following options are used for applying the safener: • seeds of the crop plants are, before sowing, dressed with the safener substance (the amount of safener stated in percent, based on the weight of the seed) • before the application of the test substances, the crop plants are sprayed with the safener at a certain application rate per hectare (usually 1 day before the application of the test substances) • the safener is applied together with the test substance as a tank mix (the amount of safener is stated in g/ha or as a ratio, based on the herbicide). • By comparing the effect of test substances on crop plants without or with safener treatment, it is possible to assess the effect of the safener substance.
Container Trials with Cereal in the Greenhouse
Mefenpyr 1 Day Prior to Herbicide Application

[1] = 10 days after application, 25 g of a.i./ha
[2] = 10 days after application, 50 g of a.i./ha
[3] = 10 days after application, 100 g of a.i./ha
[4] = 28 days after application, 25 g of a.i./ha
[5] = 28 days after application, 50 g of a.i./ha
[6] = 28 days after application, 100 g of a.i./ha
[7] = 28 days after application, 12.5 g of a.i./ha

CCc1cc(C)cc(CC)c1C1=C(O)C2CC3OC(C)(C)OC3CC2C1=O (mixture of isomers) [I-a-13]
Summer barley observed (%) [1]: 30%
Summer wheat observed (%) [1]: 50%
Summer barley observed (%) [2]: 50%
Summer wheat observed (%) [2]: 80%
Summer barley observed (%) [3]: 60%
Summer wheat observed (%) [3]: 80%

CCc1cc(C)cc(CC)c1C1=C(OC(=O)C(C)C)[C@H]2CCCC[C@H]2C1=O (relative stereo) [I-b-23]
Summer wheat observed (%) (10 days after application, 12.5 g of a.i./ha): 30%
Summer barley observed (%) [1]: 30%
Summer wheat observed (%) [1]: 40%
Summer barley observed (%) [2]: 60%
Summer wheat observed (%) [2]: 70%
Summer barley observed (%) [3]: 60%
Summer wheat observed (%) [3]: 80%

CCc1cc(C)cc(CC)c1C1=C(OC(=O)COC)[C@H]2CCCC[C@H]2C1=O (relative stereo) [I-b-25]
Summer wheat observed (%) [4]: 10%
Summer barley observed (%) [5]: 40%
Summer wheat observed (%) [5]: 50%
Summer barley observed (%) [6]: 95%
Summer wheat observed (%) [6]: 70%

CCc1cc(C)cc(CC)c1C1=C(OC(=O)COC)[C@H]2CCCC[C@@H]2C1=O (relative stereo) [I-b-27]
Summer wheat observed (%) [7]: 10%
Summer wheat observed (%) [4]: 20%
Summer barley observed (%) [5]: 20%
Summer wheat observed (%) [5]: 40%
Summer barley observed (%) [6]: 50%
Summer wheat observed (%) [6]: 70%

CCc1cc(C)cc(CC)c1C1=C(OC(=O)C(C)C)[C@H]2CCCC[C@@H]2C1=O (relative stereo) [I-b-28]
Summer barley observed (%) [7]: 20%
Summer wheat observed (%) [7]: 10%
Summer barley observed (%) [4]: 30%
Summer wheat observed (%) [4]: 70%
Summer barley observed (%) [5]: 75%
Summer wheat observed (%) [5]: 80%

CCc1cc(C)cc(C)c1C1C(=O)[C@H]2CCCC[C@@H]2C1=O [I-a-1]
Summer barley observed (%) [7]: 5%
Summer wheat observed (%) [7]: 10%
Summer barley observed (%) [4]: 50%
Summer wheat observed (%) [4]: 40%
Summer barley observed (%) [5]: 70%
Summer wheat observed (%) [5]: 50%
Summer wheat observed (%) [6]: 50%

CCc1cc(C)cc(C)c1C1=C(O)C2(CCCCC2)CC1=O [I-a-3]
Summer barley observed (%) [1]: 15%
Summer barley observed (%) [2]: 20%
Summer wheat observed (%) [4]: 25%
Summer wheat observed (%) [5]: 25%

CCc1cc(CC)c(C2=C(O)C3CCCCC3C2=O)c(CC)c1 (stereo not shown) [I-a-15]
Summer barley observed (%) [2]: 20%
Summer wheat observed (%) [2]: 20%
Summer barley observed (%) [3]: 30%
Summer wheat observed (%) [3]: 30%

CCc1cc(C)cc(C)c1C1=C(O)C2CCCCCC2C1=O (stereo not shown) [I-a-18]
Summer barley observed (%) [4]: 20%
Summer wheat observed (%) [4]: 60%
Summer barley observed (%) [5]: 50%
Summer wheat observed (%) [5]: 70%
Summer barley observed (%) [6]: 90%
Summer wheat observed (%) [6]: 80%

CCc1cc(C)cc(C)c1C1=C(OC(=O)COC)C2(CCCC2)CC1=O [I-b-11]
Summer wheat observed (%) [2]: 30%
Summer wheat observed (%) [3]: 50%

CCc1cc(C)cc(C)c1C1=C(OC(=O)COC)C2CCCCC2C1=O (stereo not shown) [I-b-13]
Summer barley observed (%) [7]: 10%
Summer wheat observed (%) [7]: 20%
Summer barley observed (%) [4]: 20%
Summer wheat observed (%) [4]: 70%
Summer barley observed (%) [5]: 90%
Summer wheat observed (%) [5]: 85%

CCc1cc(C)cc(C)c1C1=C(OC(=O)COC)C2CCCCC2C1=O (stereo not shown) [I-b-15]
Summer wheat observed (%) [7]: 10%
Summer barley observed (%) [4]: 10%
Summer wheat observed (%) [4]: 30%
Summer barley observed (%) [5]: 30%
Summer wheat observed (%) [5]: 50%
Summer barley observed (%) [6]: 90%
Summer wheat observed (%) [6]: 85%

CCc1cc(C)cc(C)c1C1=C(OC(=O)C(C)C)C2CCCCC2C1=O (stereo not shown) [I-b-16]
Summer barley observed (%) [1]: 20%
Summer wheat observed (%) [1]: 20%
Summer barley observed (%) [2]: 40%
Summer wheat observed (%) [2]: 50%
Summer barley observed (%) [3]: 60%
Summer wheat observed (%) [3]: 60%

CCC(=O)OC1=C(c2c(C)cc(C)cc2CC)C(=O)C2CCCCC12 (stereo not shown) [I-b-21]
Summer barley observed (%) [7]: 5%
Summer wheat observed (%) [7]: 20%
Summer barley observed (%) [4]: 30%
Summer wheat observed (%) [4]: 60%
Summer barley observed (%) [5]: 50%
Summer wheat observed (%) [5]: 70%
Summer barley observed (%) [6]: 95%

CCc1cc(C)cc(CC)c1C1=C(OC(=O)COC)C2(CCCCC2)CC1=O [I-b-33]
Summer wheat observed (%) [1]: 15%
Summer wheat observed (%) [2]: 30%
Summer wheat observed (%) [3]: 65%

CCc1cc(CC)c(C2=C(OC(=O)COC)C3CCCCC3C2=O)c(CC)c1 (stereo not shown) [I-b-42]
Summer barley observed (%) [1]: 20%
Summer wheat observed (%) [1]: 40%
Summer barley observed (%) [2]: 40%
Summer wheat observed (%) [2]: 50%
Summer barley observed (%) [3]: 50%
Summer wheat observed (%) [3]: 50%

CCC(=O)OC1=C(c2c(CC)cc(C)cc2CC)C(=O)C2CCCCC12 (stereo not shown) [I-b-44]
Summer barley observed (%) [1]: 20%
Summer wheat observed (%) [1]: 20%
Summer barley observed (%) [2]: 40%
Summer wheat observed (%) [2]: 40%
Summer barley observed (%) [3]: 40%
Summer wheat observed (%) [3]: 40%

CCOC(=O)OC1=C(c2c(C)cc(C)cc2CC)C(=O)C2CCCCC12 (stereo not shown) [I-c-4]
Summer barley observed (%) [7]: 5%
Summer wheat observed (%) [7]: 10%
Summer barley observed (%) [4]: 10%
Summer wheat observed (%) [4]: 20%
Summer barley observed (%) [5]: 30%
Summer wheat observed (%) [5]: 90%
Summer barley observed (%) [6]: 80%
Summer wheat observed (%) [6]: 95%

CCOC(=O)OC1=C(c2c(CC)cc(C)cc2CC)C(=O)C2CCCCC12 (stereo not shown) [I-c-8]
Summer barley observed (%) [1]: 15%
Summer wheat observed (%) [1]: 50%
Summer barley observed (%) [2]: 20%
Summer wheat observed (%) [2]: 70%
Summer barley observed (%) [3]: 30%
Summer wheat observed (%) [3]: 80%

CCOC(=O)OC1=C(c2c(CC)cc(C)cc2CC)C(=O)C2CCCCC12 (stereo not shown) [I-c-9]
Summer barley observed (%) [7]: 10%
Summer wheat observed (%) [7]: 10%
Summer barley observed (%) [4]: 20%
Summer wheat observed (%) [4]: 30%
Summer barley observed (%) [5]: 40%
Summer wheat observed (%) [5]: 60%
Summer barley observed (%) [6]: 90%
Summer wheat observed (%) [6]: 70%

CCc1cc(C)cc(CC)c1C1=C(OC(=O)OC)C2CCCCC2C1=O (stereo not shown) [I-c-10]
Summer barley observed (%) [4]: 25%
Summer wheat observed (%) [4]: 40%
Summer barley observed (%) [5]: 50%
Summer wheat observed (%) [5]: 80%
Summer barley observed (%) [6]: 90%
Summer wheat observed (%) [6]: 85%

CCc1cc(C)cc(CC)c1C1=C(OC(=O)OC)C2CCCCC2C1=O (stereo not shown) [I-c-14]
Summer wheat observed (%) [7]: 20%
Summer barley observed (%) [4]: 30%
Summer wheat observed (%) [4]: 80%
Summer barley observed (%) [5]: 93%
Summer wheat observed (%) [5]: 95%
